The values that follow come from ChEMBL document CHEMBL1152560, “Substituted 2-arylbenzothiazoles as kinase inhibitors: hit-to-lead optimization” (Bioorg Med Chem, 2009).

Assay [1] deals with Maternal embryonic leucine zipper kinase (Homo sapiens) (UniProt Q14680). Kind of assay: Residual activity of MELK at 10 uM by microplate scintillation counting.
The target in assay [2] is Macrophage colony-stimulating factor 1 receptor (Homo sapiens) (UniProt P07333). The experiment in a line: Residual activity of CSF1R at 1 uM by microplate scintillation counting.
Sequence of Macrophage colony-stimulating factor 1 receptor (Homo sapiens) (P07333 whole entry): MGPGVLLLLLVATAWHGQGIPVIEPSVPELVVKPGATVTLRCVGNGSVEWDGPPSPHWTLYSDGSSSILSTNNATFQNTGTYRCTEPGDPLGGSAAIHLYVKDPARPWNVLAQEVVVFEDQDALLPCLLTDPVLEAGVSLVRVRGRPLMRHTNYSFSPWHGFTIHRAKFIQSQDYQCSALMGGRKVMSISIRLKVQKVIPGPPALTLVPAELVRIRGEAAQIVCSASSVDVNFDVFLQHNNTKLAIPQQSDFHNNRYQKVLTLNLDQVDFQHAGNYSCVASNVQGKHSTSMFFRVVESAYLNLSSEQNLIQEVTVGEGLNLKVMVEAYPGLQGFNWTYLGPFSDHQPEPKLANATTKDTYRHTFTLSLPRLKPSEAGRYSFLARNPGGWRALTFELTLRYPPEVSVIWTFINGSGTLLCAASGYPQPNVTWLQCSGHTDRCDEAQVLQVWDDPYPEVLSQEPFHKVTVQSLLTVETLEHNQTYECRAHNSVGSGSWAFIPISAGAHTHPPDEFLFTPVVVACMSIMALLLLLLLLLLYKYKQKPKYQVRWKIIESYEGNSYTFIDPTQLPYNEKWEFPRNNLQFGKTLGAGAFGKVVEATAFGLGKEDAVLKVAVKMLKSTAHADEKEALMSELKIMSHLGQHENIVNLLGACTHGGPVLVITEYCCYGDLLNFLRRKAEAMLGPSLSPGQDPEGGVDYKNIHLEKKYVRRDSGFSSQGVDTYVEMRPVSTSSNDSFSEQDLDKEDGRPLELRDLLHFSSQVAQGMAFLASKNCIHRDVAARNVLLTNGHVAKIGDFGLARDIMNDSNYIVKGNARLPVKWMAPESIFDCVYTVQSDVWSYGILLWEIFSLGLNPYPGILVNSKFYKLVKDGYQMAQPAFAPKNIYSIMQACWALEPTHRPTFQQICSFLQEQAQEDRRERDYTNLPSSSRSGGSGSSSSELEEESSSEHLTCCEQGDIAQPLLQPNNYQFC
In assay [3] the target is T1, Serine/threonine-protein kinase D1 (Homo sapiens) (UniProt Q15139).
T1 sequence (whole entry): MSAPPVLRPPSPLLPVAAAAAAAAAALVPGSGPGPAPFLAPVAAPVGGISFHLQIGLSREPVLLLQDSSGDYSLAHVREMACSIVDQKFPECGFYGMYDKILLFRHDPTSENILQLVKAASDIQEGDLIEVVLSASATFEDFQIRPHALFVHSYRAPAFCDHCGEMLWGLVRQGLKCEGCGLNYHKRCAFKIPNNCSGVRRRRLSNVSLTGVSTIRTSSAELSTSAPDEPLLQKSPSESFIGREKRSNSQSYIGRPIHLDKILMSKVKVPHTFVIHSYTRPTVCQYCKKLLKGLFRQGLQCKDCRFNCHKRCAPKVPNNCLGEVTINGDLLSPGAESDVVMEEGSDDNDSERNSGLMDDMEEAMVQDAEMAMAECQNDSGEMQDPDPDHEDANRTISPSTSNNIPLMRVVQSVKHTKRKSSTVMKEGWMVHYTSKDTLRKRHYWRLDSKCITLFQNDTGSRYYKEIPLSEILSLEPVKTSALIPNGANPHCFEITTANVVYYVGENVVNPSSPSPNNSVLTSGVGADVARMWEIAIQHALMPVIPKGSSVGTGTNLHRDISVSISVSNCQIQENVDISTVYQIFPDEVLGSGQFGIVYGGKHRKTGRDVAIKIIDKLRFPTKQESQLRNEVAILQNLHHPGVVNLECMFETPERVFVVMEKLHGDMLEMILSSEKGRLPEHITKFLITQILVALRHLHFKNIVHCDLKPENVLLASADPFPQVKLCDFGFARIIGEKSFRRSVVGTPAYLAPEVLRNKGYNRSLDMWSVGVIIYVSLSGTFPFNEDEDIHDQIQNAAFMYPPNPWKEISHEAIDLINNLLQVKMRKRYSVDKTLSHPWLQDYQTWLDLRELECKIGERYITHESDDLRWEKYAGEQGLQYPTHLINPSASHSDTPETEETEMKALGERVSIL
The experiment in a line: Residual activity of PKCmu at 1 uM by microplate scintillation counting.

Assay [4] addresses T2, Megakaryocyte-associated tyrosine-protein kinase (Homo sapiens) (UniProt P42679).
T2 sequence (whole entry): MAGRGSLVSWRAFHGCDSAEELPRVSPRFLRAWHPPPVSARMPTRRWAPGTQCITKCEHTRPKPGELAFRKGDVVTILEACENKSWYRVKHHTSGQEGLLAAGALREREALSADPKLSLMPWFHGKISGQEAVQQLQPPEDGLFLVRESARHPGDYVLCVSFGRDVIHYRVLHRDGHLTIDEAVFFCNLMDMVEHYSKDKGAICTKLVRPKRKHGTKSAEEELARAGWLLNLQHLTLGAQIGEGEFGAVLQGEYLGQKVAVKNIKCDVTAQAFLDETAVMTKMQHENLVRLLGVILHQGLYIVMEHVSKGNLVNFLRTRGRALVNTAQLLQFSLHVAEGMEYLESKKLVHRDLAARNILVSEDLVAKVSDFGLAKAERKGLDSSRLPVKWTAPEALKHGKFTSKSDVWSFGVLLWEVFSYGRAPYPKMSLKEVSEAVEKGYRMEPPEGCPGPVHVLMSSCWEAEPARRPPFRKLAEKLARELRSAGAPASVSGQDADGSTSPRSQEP
Kind of assay: Residual activity of MATK at 0.1 uM by microplate scintillation counting.

Assay [5] concerns the target Interleukin-1 receptor-associated kinase 1 (Homo sapiens) (UniProt P51617). The experiment in a line: Residual activity of IRAKI at 0.1 uM by microplate scintillation counting.
Assay [6] addresses Cyclin-dependent kinase 1/cyclin B1 (Homo sapiens) (UniProt P06493+P14635). Kind of assay: Residual activity of CDK1/CyclinB1 at 1 uM by microplate scintillation counting. It counts as protein-complex assay.
Assay [7] concerns the target T3, Calcium/calmodulin-dependent protein kinase type IV (Homo sapiens) (UniProt Q16566).
T3 sequence (whole entry): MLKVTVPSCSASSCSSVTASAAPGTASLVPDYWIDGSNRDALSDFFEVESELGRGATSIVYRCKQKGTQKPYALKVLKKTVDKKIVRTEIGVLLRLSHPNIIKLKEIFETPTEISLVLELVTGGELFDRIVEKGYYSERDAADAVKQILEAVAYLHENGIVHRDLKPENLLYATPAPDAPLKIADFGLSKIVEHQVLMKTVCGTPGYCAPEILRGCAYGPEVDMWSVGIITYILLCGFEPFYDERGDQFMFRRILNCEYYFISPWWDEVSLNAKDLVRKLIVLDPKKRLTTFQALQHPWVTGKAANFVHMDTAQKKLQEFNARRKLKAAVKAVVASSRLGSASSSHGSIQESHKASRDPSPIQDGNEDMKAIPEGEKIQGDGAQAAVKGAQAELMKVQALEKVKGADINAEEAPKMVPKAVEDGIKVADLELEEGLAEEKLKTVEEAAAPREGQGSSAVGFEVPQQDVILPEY
Kind of assay: Residual activity of CAMK4 at 10 uM by microplate scintillation counting.

The target of assay [8] is T4, Protein kinase C epsilon type (Homo sapiens) (UniProt Q02156).
T4 sequence (whole entry): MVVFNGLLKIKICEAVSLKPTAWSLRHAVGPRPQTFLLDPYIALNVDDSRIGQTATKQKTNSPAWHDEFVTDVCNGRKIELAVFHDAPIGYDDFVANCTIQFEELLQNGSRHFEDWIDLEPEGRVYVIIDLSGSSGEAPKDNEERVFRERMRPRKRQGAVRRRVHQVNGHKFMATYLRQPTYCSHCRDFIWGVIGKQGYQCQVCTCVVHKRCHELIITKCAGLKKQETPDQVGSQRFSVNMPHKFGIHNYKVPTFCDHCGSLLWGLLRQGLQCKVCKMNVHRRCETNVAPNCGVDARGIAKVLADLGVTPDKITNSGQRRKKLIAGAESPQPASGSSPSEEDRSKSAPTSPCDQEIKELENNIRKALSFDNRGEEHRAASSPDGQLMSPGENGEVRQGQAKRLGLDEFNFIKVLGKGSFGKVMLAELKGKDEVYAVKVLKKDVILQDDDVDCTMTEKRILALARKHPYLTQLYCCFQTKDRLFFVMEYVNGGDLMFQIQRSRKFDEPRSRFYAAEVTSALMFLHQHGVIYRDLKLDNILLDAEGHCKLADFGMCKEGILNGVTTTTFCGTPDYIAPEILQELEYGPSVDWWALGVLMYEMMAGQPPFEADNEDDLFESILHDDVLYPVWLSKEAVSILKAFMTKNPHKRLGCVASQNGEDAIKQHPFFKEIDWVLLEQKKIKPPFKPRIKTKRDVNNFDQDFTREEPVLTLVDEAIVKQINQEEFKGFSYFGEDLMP
The experiment in a line: Residual activity of PKCepsilon at 0.1 uM by microplate scintillation counting.

Sequence of Cyclin-dependent kinase 1/cyclin B1 (Homo sapiens) (P06493 whole entry, looked up): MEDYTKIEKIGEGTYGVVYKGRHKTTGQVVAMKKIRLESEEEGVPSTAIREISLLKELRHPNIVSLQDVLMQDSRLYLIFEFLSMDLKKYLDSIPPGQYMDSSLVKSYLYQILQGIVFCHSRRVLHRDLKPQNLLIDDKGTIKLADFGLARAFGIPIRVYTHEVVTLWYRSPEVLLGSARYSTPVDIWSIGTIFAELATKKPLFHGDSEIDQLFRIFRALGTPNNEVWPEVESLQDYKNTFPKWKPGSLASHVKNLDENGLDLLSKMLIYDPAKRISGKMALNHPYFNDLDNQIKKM
Sequence of Cyclin-dependent kinase 1/cyclin B1 (Homo sapiens) (P14635 whole entry, looked up): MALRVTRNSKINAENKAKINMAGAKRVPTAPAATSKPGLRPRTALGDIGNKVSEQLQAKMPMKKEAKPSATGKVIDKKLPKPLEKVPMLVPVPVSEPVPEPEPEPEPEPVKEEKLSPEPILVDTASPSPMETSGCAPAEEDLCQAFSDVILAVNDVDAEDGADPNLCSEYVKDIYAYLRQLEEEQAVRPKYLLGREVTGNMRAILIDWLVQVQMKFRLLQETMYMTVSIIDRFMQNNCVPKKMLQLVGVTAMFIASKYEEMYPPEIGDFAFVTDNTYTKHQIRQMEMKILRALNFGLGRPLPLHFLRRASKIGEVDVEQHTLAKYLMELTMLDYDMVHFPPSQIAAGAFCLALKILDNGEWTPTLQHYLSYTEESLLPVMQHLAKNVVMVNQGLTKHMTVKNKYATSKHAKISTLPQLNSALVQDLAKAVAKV
Sequence of Interleukin-1 receptor-associated kinase 1 (Homo sapiens) (P51617 whole entry, looked up): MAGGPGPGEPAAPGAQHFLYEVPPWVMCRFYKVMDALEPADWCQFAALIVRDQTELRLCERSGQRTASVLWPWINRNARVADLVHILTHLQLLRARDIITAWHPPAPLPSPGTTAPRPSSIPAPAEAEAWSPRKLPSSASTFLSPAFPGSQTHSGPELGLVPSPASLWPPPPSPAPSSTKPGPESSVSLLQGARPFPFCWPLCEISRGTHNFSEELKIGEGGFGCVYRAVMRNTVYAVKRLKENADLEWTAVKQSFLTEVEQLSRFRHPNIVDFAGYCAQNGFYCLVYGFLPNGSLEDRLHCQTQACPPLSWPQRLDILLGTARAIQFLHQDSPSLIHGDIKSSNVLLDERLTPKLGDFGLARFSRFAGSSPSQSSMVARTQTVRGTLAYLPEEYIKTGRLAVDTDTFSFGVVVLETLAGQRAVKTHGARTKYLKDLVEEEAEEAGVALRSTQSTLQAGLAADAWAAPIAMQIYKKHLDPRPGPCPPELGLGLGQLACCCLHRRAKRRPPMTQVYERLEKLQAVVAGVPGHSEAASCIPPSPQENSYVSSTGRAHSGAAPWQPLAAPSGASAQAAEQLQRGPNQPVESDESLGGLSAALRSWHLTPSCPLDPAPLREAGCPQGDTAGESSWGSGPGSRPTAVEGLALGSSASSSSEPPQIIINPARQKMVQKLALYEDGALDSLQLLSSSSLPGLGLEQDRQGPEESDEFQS
Sequence of Maternal embryonic leucine zipper kinase (Homo sapiens) (Q14680 whole entry, looked up): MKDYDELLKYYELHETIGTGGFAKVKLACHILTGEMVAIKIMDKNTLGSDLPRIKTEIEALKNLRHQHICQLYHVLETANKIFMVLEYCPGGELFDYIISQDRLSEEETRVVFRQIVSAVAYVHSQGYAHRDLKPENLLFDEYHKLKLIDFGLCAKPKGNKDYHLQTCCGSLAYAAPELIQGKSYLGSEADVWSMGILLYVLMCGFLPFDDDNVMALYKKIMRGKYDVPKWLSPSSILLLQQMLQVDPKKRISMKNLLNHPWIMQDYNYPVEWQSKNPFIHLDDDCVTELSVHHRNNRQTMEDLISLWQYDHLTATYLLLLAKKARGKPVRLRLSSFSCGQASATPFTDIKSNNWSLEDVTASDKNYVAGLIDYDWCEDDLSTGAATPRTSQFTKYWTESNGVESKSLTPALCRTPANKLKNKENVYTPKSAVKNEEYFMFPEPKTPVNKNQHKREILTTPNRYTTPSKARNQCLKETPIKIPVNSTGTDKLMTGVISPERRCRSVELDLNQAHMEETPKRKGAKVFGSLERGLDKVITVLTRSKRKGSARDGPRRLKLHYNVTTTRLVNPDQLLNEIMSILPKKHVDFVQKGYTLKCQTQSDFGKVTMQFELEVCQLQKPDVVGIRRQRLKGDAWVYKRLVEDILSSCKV

Take `COc1cc2c(Oc3ccc(-c4nc5ccccc5s4)cc3)ncnc2cc1OCCCN1CCCC1`: the residual activity was 85% in assay [1]; 112% in assay [2]; 100% in assay [3]; 109% in assay [4]; 61% in assay [5]; 81% in assay [6]. The residual activity in assay [7] came to 88%; in assay [8], 112%.
For `COc1cc2c(Oc3ccc(-c4nc5ccccc5s4)cc3F)ncnc2cc1OCCCN1CCN(C)CC1`, the residual activity in assay [1] amounted to 77%; in assay [2], 105%; in assay [3] it was 89%; in assay [4] it was 96%; in assay [5], 84%; in assay [6], 99%. Further, the residual activity in assay [7] was found to be 211%; in assay [8] it was 108%.
Take `COc1cc2c(Oc3ccc(-c4nc5ccccc5s4)cc3)ncnc2cc1OCCCN1CCN(C)CC1`: the residual activity turned out to be 98% in assay [1]; 118% in assay [2]; 89% in assay [3]; 107% in assay [4]; 77% in assay [5]; 89% in assay [6]. The values for the residual activity in assay [7] and in assay [8] were 227% and 106%, respectively.
